# According to patent US8461181B2, “Fused heterocyclic compound and use thereof” (Sumitomo Chemical Company, Ltd., priority 2009, dated 2013):
# System: Nilaparvata lugens
# Assay: Test Example 9: foot drench of rice seedling, twenty first instar larvae of Nilaparvata lugens
# Assay type: in vivo
# Conditions: soil, 144 h, 5 ml drench at foot of rice seedling, kept 7 days, twenty first instar larvae released, further 6 days
# Experimental: The formulations of the present active compounds (6), (7), (18), (22), (25), (30), (33), (46), (47), (53), (101) to (103), (106), (121) to (124), (126) to (128), (135), (139), (216) and (217) obtained by Formulation Example 5 were diluted with water so that the active ingredient concentration was 500 ppm, to prepare diluted solutions for test. Separately, a rice seedling (2 weeks after sowing, second leaf spreading stage) planted on a plastic cup was drenched at its foot with each 5 ml of the diluted solutions, and kept in a greenhouse of 25° C. for 7 days. Twenty first instar larvae of Nilaparvata lugens were released, and further kept in the greenhouse for 6 days, then, the number of insect of living Nilaparvata lugens […] on rice was checked, and the control value was calculated according to the following formula. Control value (%)={1-(Cb×Tai)/(Cai×Tb)}×100 Letters in the formula represent the following meanings. Cb: the number of insect before treatment on non-treated district Cai: the number of insect in observation on non-treated district Tb: the number of insect before treatment on treated district Tai: the number of insect in observation on treated district
row,SMILES,pest or weed control at 500 ppm [%]
1,"C[S+]([O-])c1cnccc1-c1nc2cc(C(F)(F)F)ccc2n1C1CC1 (stereo not drawn) [present active compound 30, 1-cyclopropyl-2-(3-methanesulfinylpyridin-4-yl)-5-trifluoromethyl-1H-benzimidazole]",≥ 90
2,"CC[S+]([O-])c1cnccc1-c1nc2cc(C(F)(F)F)ccc2n1C1CC1 (stereo not drawn) [present active compound 33, 1-cyclopropyl-2-(3-ethanesulfinylpyridin-4-yl)-5-trifluoromethyl-1H-benzimidazole]",≥ 90
3,"CCOCCOc1cnccc1-c1nc2cc(C(F)(F)F)cnc2n1C [present active compound 47, 2-[3-(2-ethoxyethoxy)-pyridin-4-yl]-3-methyl-6-trifluoromethyl-3H-imidazo[4,5-b]pyridine]",≥ 90
4,C#CCSc1cnccc1-c1nc2cc(C(F)(F)F)cnc2n1C [present active compound 135],≥ 90

# System: Aphis gossypii
# Assay: Test Example 3: root immersion of cucumber seedling, Aphis gossypii
# Assay type: in vivo
# Conditions: 168 h, cucumber root part immersed in 5 ml, inoculated one day after treatment, checked seven days after
# Experimental: The formulations of the present active compounds (18), (19), (21), (22), (24), (25), (28), (31) to (34), (46), (47), (52), (53), (101) to (104), (106) to (108), (112) to (114), (117), (118), (122), (123), (126), (128), (129), (133), (134), (138), (144), (153) to (155) and (157) obtained by Formulation Example 5 were diluted with water so that the active ingredient concentration was 500 ppm, to prepare diluted solutions for test. A root part of a cucumber seedling (first true leaf spreading stage) from which soil had been washed off was immersed in 5 ml of this diluted solution, and one day after treatment, the cucumber leaf surface was inoculated with 30 Aphis gossypii (whole stage). Further seven days after, the number of insect of living Aphis gossypii […] on the leaves of this cucumber was checked, and the control value was calculated according to the following formula. Control value (%)={1-(Cb×Tai)/(Cai×Tb)}×100 Letters in the formula represent the following meanings. Cb: the number of insect before treatment on non-treated district Cai: the number of insect in observation on non-treated district Tb: the number of insect before treatment on treated district Tai: the number of insect in observation on treated district
row,SMILES,pest or weed control at 500 ppm [%]
1,"Cn1c(-c2ccncc2S(C)(=O)=O)nc2cc(C(F)(F)F)ccc21 [present active compound 19, 2-(3-methanesulfonylpyridin-4-yl)-1-methyl-5-trifluoromethyl-1H-benzimidazole]",≥ 90
2,"CC[S+]([O-])c1cnccc1-c1nc2cc(C(F)(F)F)ccc2n1C (stereo not drawn) [present active compound 21, 2-(3-ethanesulfinylpyridin-4-yl)-1-methyl-5-trifluoromethyl-1H-benzimidazole]",≥ 90
3,"Cn1c(-c2cc[n+]([O-])cc2)nc2cc(C(F)(F)F)ccc21 [present active compound 24, 1-methyl-2-(1-oxypyridin-4-yl)-5-trifluoromethyl-1H-benzimidazole]",≥ 90
4,"Fc1cnccc1-c1nc2cc(C(F)(F)F)ccc2n1C1CC1 [present active compound 28, 1-cyclopropyl-2-(3-fluoropyridin-4-yl)-5-trifluoromethyl-1H-benzimidazole]",≥ 90
5,"CCOCCOc1cnccc1-c1nc2cc(C(F)(F)F)cnc2n1C [present active compound 47, 2-[3-(2-ethoxyethoxy)-pyridin-4-yl]-3-methyl-6-trifluoromethyl-3H-imidazo[4,5-b]pyridine]",≥ 90
6,"CC[S+]([O-])c1cnccc1-c1nc2cc(C(F)(F)F)cnc2n1C (stereo not drawn) [present active compound 52, 2-(3-ethanesulfinylpyridin-4-yl)-3-methyl-6-trifluoromethyl-3H-imidazo[4,5-b]pyridine]",≥ 90
7,Cn1c(-c2ccncc2SC(F)(F)F)nc2cc(C(F)(F)F)ccc21 [present active compound 122],≥ 90
8,Cn1c(-c2ccncc2SCC(F)F)nc2cc(C(F)(F)F)cnc21 [present active compound 123],≥ 90
9,Cn1c(-c2ccncc2SC(F)(F)C(F)F)nc2cc(C(F)(F)F)cnc21 [present active compound 126],≥ 90
10,Cn1c(-c2ccncc2SCCF)nc2cc(C(F)(F)F)cnc21 [present active compound 128],≥ 90
11,Cn1c(-c2ccncc2SCCF)nc2cc(C(F)(F)F)ccc21 [present active compound 129],≥ 90
12,C=CCSc1cnccc1-c1nc2cc(C(F)(F)F)cnc2n1C [present active compound 133],≥ 90
13,C=CCSc1cnccc1-c1nc2cc(C(F)(F)F)ccc2n1C [present active compound 134],≥ 90
14,CCNC(=O)c1cnccc1-c1nc2cc(C(F)(F)F)cnc2n1C [present active compound 138],≥ 90
15,CCOC(=O)c1cnccc1-c1nc2cc(C(F)(F)F)cnc2n1C [present active compound 144],≥ 90
16,COC(=O)CSc1cnccc1-c1nc2cc(C(F)(F)F)cnc2n1C [present active compound 157],≥ 90

# System: Nilaparvata lugens
# Assay: Test Example 8: spray on rice seedling, 20 first instar larvae of Nilaparvata lugens
# Assay type: in vivo
# Conditions: 144 h, 10 ml sprayed on rice seedling, 20 first instar larvae released, 6 days at 25° C.
# Experimental: The formulations of the present active compounds (6), (7), (18), (21), (24), (25), (28) to (30), (32), (46), (52), (101) to (103), (105) to (107), (111), (112), (115), (119) to (124), (126) to (130), (133) to (135), (139), (142), (144) to (146), (149) to (151), (153), (154), (216) and (217) obtained by Formulation Example 5 were diluted with water so that the active ingredient concentration was 500 ppm, to prepare spray solutions for test. Separately, on a rice seedling (2 weeks after sowing, second leaf spreading stage) planted on a plastic cup, the drug solutions for test prepared as described above were sprayed each in an amount of 10 ml. After drying of the drug solution sprayed on rice, 20 first instar larvae of Nilaparvata lugens were released, and kept in a greenhouse of 25° C. for 6 days. Thereafter, the number of Nilaparvata lugens […] on rice was checked, and the control value was calculated according to the following formula. Control value (%)={1-(Cb×Tai)/(Cai×Tb)}×100 Letters in the formula represent the following meanings. Cb: the number of insect before treatment on non-treated district Cai: the number of insect in observation on non-treated district Tb: the number of insect before treatment on treated district Tai: the number of insect in observation on treated district
row,SMILES,pest or weed control at 500 ppm [%]
1,"CC[S+]([O-])c1cnccc1-c1nc2cc(C(F)(F)F)ccc2n1C (stereo not drawn) [present active compound 21, 2-(3-ethanesulfinylpyridin-4-yl)-1-methyl-5-trifluoromethyl-1H-benzimidazole]",≥ 90
2,"Cn1c(-c2cc[n+]([O-])cc2)nc2cc(C(F)(F)F)ccc21 [present active compound 24, 1-methyl-2-(1-oxypyridin-4-yl)-5-trifluoromethyl-1H-benzimidazole]",≥ 90
3,"CCSc1cnccc1-c1nc2cc(C(F)(F)F)ccc2n1C1CC1 [present active compound 32, 1-cyclopropyl-2-(3-ethylthiopyridin-4-yl)-5-trifluoromethyl-1H-benzimidazole]",≥ 90
4,"CC[S+]([O-])c1cnccc1-c1nc2cc(C(F)(F)F)cnc2n1C (stereo not drawn) [present active compound 52, 2-(3-ethanesulfinylpyridin-4-yl)-3-methyl-6-trifluoromethyl-3H-imidazo[4,5-b]pyridine]",≥ 90
5,Cn1c(-c2ccncc2OCC(C)(C)C)nc2cc(C(F)(F)F)cnc21 [present active compound 111],≥ 90
6,CC(C)COc1cnccc1-c1nc2cc(C(F)(F)F)cnc2n1C [present active compound 112],≥ 90
7,Cn1c(-c2ccncc2S)nc2cc(C(F)(F)F)cnc21 [present active compound 115],≥ 90
8,Cn1c(-c2ccncc2C(=O)NCC#N)nc2cc(C(F)(F)F)cnc21 [present active compound 142],≥ 90
9,Cn1c(-c2ccncc2SCC#N)nc2cc(C(F)(F)F)cnc21 [present active compound 153],≥ 90
10,Cn1c(-c2ccncc2SCC#N)nc2cc(C(F)(F)F)ccc21 [present active compound 154],≥ 90

# System: Aphis gossypii
# Assay: Test Example 4: foot drench of cucumber seedling in plastic cup, inoculation after 7 days, Aphis gossypii
# Assay type: in vivo
# Conditions: soil, 144 h, 5 ml drench at foot of cucumber seedling in plastic cup, kept 7 days at 25° C., inoculated, further 6 days
# Experimental: The formulations of the present active compounds (3) to (7), (17), (19), (20), (22), (29) to (31), (35) to (37), (39), (41) to (45), (47) to (56), (101), (106), (121) to (123), (128), (131), (137), (139), (143), (145), (147), (211) to (213), (216) and (217) obtained by Formulation Example 5 were diluted with water so that the active ingredient concentration was 500 ppm, to prepare diluted solutions for test. Separately, a cucumber seedling (second true leaf spreading stage) planted on a plastic cup was drenched at its foot with each 5 ml of the diluted solutions, and kept in a greenhouse of 25° C. for 7 days. The cucumber leaf surface was inoculated with 30 Aphis gossypii (whole stage), and further kept in the greenhouse for 6 days, then, the number of insect of living Aphis gossypii […] on the leaves of this cucumber was checked, and the control value was calculated according to the following formula. Control value (%)={1-(Cb×Tai)/(Cai×Tb)}×100 Letters in the formula represent the following meanings. Cb: the number of insect before treatment on non-treated district Cai: the number of insect in observation on non-treated district Tb: the number of insect before treatment on treated district Tai: the number of insect in observation on treated district
row,SMILES,pest or weed control at 500 ppm [%]
1,"Cn1c(-c2ccncc2S(C)(=O)=O)nc2cc(C(F)(F)F)ccc21 [present active compound 19, 2-(3-methanesulfonylpyridin-4-yl)-1-methyl-5-trifluoromethyl-1H-benzimidazole]",≥ 90
2,"CCOc1cnccc1-c1nc2cc(C(F)(F)F)cnc2n1C [present active compound 39, 2-(3-ethoxypyridin-4-yl)-3-methyl-6-trifluoromethyl-3H-imidazo[4,5-b]pyridine]",≥ 90
3,CC(C)Sc1cnccc1-c1nc2cc(C(F)(F)F)cnc2n1C [present active compound 101],≥ 90
4,Cn1c(-c2ccncc2SCCF)nc2cc(C(F)(F)F)cnc21 [present active compound 128],≥ 90
5,CN(C)S(=O)(=O)c1cnccc1-c1nc2cc(C(F)(F)F)cnc2n1C [present active compound 131],≥ 90
6,CNC(=O)c1cnccc1-c1nc2cc(C(F)(F)F)cnc2n1C [present active compound 137],≥ 90
7,COC(=O)c1cnccc1-c1nc2cc(C(F)(F)F)cnc2n1C [present active compound 143],≥ 90
8,Cn1c(-c2ccncc2SCC2CC2)nc2cc(C(F)(F)F)cnc21 [present active compound 145],≥ 90
9,COCCSc1cnccc1-c1nc2cc(C(F)(F)F)cnc2n1C [present active compound 147],≥ 90
